Measured values published in patent US20160052918A1, “SMALL COMPOUNDS TARGETING TACC3” (JAPANESE FOUNDATION FOR CANCER RESEARCH, priority 2012, published 2016).
In brackets after ≈: the same amount, converted by molar mass.

What was measured:
[1] = test system: SKOV-3 cells expressing EGFP-α-tubulin; assay: Mitotic arrest of synchronized EGFP-α-tubulin-expressing SKOV-3 cells, time-lapse single-cell analysis; type: cell-based; conditions: for EC50: Homo sapiens, SK-OV-3, 72 h, mitotic arrest, EC50=50% arrest rate, double thymidine block, time-lapse 3 days, at least 50 cells, read-out: SKOV3 EC50; for inhibitory effects on cell growth: summary of Table 2 (SKOV-3 mitotic arrest and lymphoma cell death); for Remarks: start of mitosis: At 66.7 μg/ml; for Remarks: cytotoxic: Table 2 remark
Method: The EGFP-α-tubulin-expressing cells used in the assay will be described. In order to observe mitosis under a fluorescence microscope, cells expressing EGFP-α-tubulin (fusion protein of a fluorescent protein, EGFP, and α-tubulin) were prepared. A system observable under a fluorescence microscope without cell fixation was prepared.
Ovary cancer cells SKOV-3 were cultured in an RPMI1640 medium supplemented with 5% fetal bovine serum. Stable cells expressing EGFP-α-tubulin were transduced by lentiviral transduction using pLenti4/V5-DEST vectors (Registered Trade Mark) (manufactured by Invitrogen Corp.) and selected by the FACS sorting of infected cells using Zeocin (Registered Trade Mark) and subsequent FACSAria (Registered Trade Mark) (Becton, Dickinson and Company).
The compounds NPD2448, NPD2568, NPD3574, NPD4089, and C7—O-propylated NPD3574 were each added at varying concentrations to the culture medium of SKOV-3 cells expressing EGFP-α-tubulin and analyzed for their effect on cell division.
The SKOV-3 cells expressing EGFP-α-tubulin were synchronized by thymidine block to analyze the effect on cell division of each compound. As shown in the upper part of FIG. 2, each compound was added to the culture medium after the 1st thymidine block. After synchronization by the second thymidine block, images were taken every 2 minutes for 3 days using Leica AF6000 and ×20/0.5 Plan Fluotar objective lens in a phenol red-free RPMI1640 medium supplemented with 5% fetal bovine serum. These time-lapse images were analyzed using ImageJ 1.42a software, and the time of mitotic arrest was determined by visual judgment. The duration of mitosis was manually determined from the image sequences of at least 50 cells.
The mitotic arrest (EC50=50% arrest rate) was tested by the microscopic analysis of individual single cells.
EGFP-α-tubulin-expressing SKOV-3 cells synchronized by double thymidine block in the same way as in Example 2 were treated with each synthesized compound and subjected to time-lapse photography for 3 days. At least 50 cells were observed. The time of arrest of each cell was calculated, and EC50 was determined therefrom.
EGFP-α-tubulin-expressing SKOV-3 cells supplemented with each of SPL-A and SPL-B at varying concentrations were synchronized by double thymidine block in the same way as in Example 2. Analysis based on single cells was conducted by time-lapse photography. The duration of mitosis was measured from the image sequences of at least 50 cells.

[2] = test system: mouse lymphoma cell line; assay: Cell death of lymphoma (survival rate, WST-1); type: cell-based; conditions: 72 h, IC50=50% survival rate, three days
Method: The synthesized compounds were analyzed for their activity against cell death induction using a mouse lymphoma cell line (see Non Patent Literature 12), which was a cell line derived from thymic lymphoma developed in p53KO mouse.
The number of the lymphoma cells was adjusted to 1.2×10^5 cells/ml. The cells were inoculated at a concentration of 50 μl/well to a 96-well culture dish. A medium containing each RT compound as the novel compound of the present invention at twice the concentration of 50 μl was further added thereto (final concentration: 0.021 to 13.3 μg/ml). Three days after cultivation, the survival rate was calculated using WST-1 reagent (manufactured by F. Hoffmann-La Roche, Ltd.).

[3] = test system: cultured cells; assay: Visual screening (microscopic observation) for abnormal cell division in cultured cells; type: cell-based; conditions: added into culture medium
Description: As a result of screening 6800 compounds, 70 compounds were bound with the TACC3-DsRed fusion protein. These 70 compounds recognized to bind to the TACC3-DsRed fusion protein were each added into a culture medium of cultured cells. Compounds inducing abnormal cell division were selected by microscopic observation. As a result, 4 compounds were screened for as compounds inhibiting cell division (FIG. 1, lower diagram, visual screening).

[4] = biological target: T1, TACC3-DsRed fusion protein (Homo sapiens, UniProt Q9Y6A5); assay: Chemical array screening for compounds binding to TACC3-DsRed fusion protein; conditions: compound immobilized on chemical array, cell lysate
T1 construct: expressed in transfected cells; host or cells: HEK293T
Method: The present inventors screened for compounds targeting at TACC3 using a chemical array (FIG. 1).
According to the protocol of Miyazaki et al. (Non Patent Literature 13), a cell lysate containing a TACC3-DsRed fusion protein was contacted with the chemical array to screen for a compound binding to the TACC3-DsRed fusion protein (FIG. 1, upper diagram).
The cell lysate containing a TACC3-DsRed fusion protein is prepared as follows.
Human TACC3 cDNA was cloned into pDsRed-Express-N1 (Registered Trade Mark) (manufactured by Clontech Laboratories, Inc.), which was then transferred to HEK293T cells. Forty eight hours after transfection, the cells were collected. The obtained cells were sonicated in PBS and centrifuged for removal of insoluble substances to obtain a cell lysate. The cell lysate was confirmed the presence of the TACC3-DsRed fusion protein using anti-TACC3 and anti-DsRed antibodies.
The cell lysate containing a TACC3-DsRed fusion protein was contacted with the chemical array. After washing, the TACC3-DsRed fusion protein bound with a compound immobilized on the chemical array was detected. The detection of the TACC3-DsRed fusion protein with a compound was carried out by the excitation of a chemical array slide with a wavelength of 532 nm and the detection of fluorescence at 575 nm

[5] = Solubility remarks of Table 2; type: physicochemical; conditions: Table 2 remark
[6] = test system: p53-knockout cells derived from human colon cancer cells HCT-116; assay: Cell growth by WST assay, combined use of SPL-B and paclitaxel; type: cell-based; conditions: HCT-116, 72 h, three days
Method: p53-knockout cells derived from human colon cancer cells HCT-116 were cultured after combined administration of paclitaxel and SPL-B. Three days after cultivation, the survival rate of the cells was measured by WST assay.

Structure (SMILES)	EC50 [1] [mg/L]	IC50 [2] [mg/L]	inhibitory effects on cell growth [1]	further results
O=c1cc(-c2cc3ccccc3oc2=O)c2ccc(O)cc2o1 [RT-030]	> 66.7			
CC1CCN(Cc2c(O)ccc3c(-c4cc5ccccc5oc4=O)cc(=O)oc23)CC1 [RT-010]	0.94 (≈ 2.25 µM)	1.64 (≈ 3.93 µM)	remarkable inhibitory effects on cell growth	
COCCN(CCOC)Cc1c(O)ccc2c(-c3cc4ccccc4oc3=O)cc(=O)oc12 [NPD3574]	0.85 (≈ 1.88 µM)	1.26 (≈ 2.79 µM)	remarkable inhibitory effects on cell growth	abnormal cell division [3]: induced abnormal cell division; binding to the TACC3-DsRed fusion protein [4]: bound to the TACC3-DsRed fusion protein
COCCN(CCOC)Cc1c(O)ccc2c(C)cc(=O)oc12 [RT-001]	> 66.7			
COCCN(CCOC)Cc1c(O)ccc2c(-c3cc4cc(F)ccc4oc3=O)cc(=O)oc12 [RT-029]	0.17 (≈ 0.362 µM)	0.21 (≈ 0.447 µM)	remarkable inhibitory effects on cell growth	
C#CCOc1ccc2c(-c3cc4ccccc4oc3=O)cc(=O)oc2c1CN(CCOC)CCOC [RT-017]	> 66.7			Remarks: solubility [5]: Insoluble
O=c1cc(-c2cc3cc(F)ccc3oc2=O)c2ccc(O)c(CN3CCOCC3)c2o1 [RT-019]	0.16 (≈ 0.378 µM)	0.12 (≈ 0.283 µM)	remarkable inhibitory effects on cell growth	
CCN(CCN(C)C)Cc1c(O)ccc2c(-c3cc4ccccc4oc3=O)cc(=O)oc12 [RT-006]	1.15 (≈ 2.65 µM)	3.3 (≈ 7.6 µM)	remarkable inhibitory effects on cell growth	
CN(CCO)Cc1c(O)ccc2c(-c3cc4ccccc4oc3=O)cc(=O)oc12 [RT-004]	8.49 (≈ 21.6 µM)	> 13.3	remarkable inhibitory effects on cell growth	
CCCN(CCC)Cc1c(O)ccc2c(-c3cc4ccccc4oc3=O)cc(=O)oc12 [NPD2448]				abnormal cell division [3]: induced abnormal cell division; binding to the TACC3-DsRed fusion protein [4]: bound to the TACC3-DsRed fusion protein
COCCN(CCOC)Cc1c(O)ccc2c(-c3cc4cc(Br)ccc4oc3=O)cc(=O)oc12 [RT-028]	6.56 (≈ 12.4 µM)	3.28 (≈ 6.18 µM)	remarkable inhibitory effects on cell growth	
O=c1cc(-c2cc3cc(Cl)ccc3oc2=O)c2ccc(O)cc2o1 [RT-018]	> 66.7			Remarks: solubility [5]: Poorly soluble in DMSO
CCCOc1ccc2c(-c3cc4ccccc4oc3=O)cc(=O)oc2c1CN(CCOC)CCOC [RT-013]	> 66.7			
COCCN(CCOC)Cc1c(OCC=C(C)C)ccc2c(-c3cc4ccccc4oc3=O)cc(=O)oc12 [RT-022]	> 66.7			Remarks: start of mitosis [1]: μg/ml, mitosis did not; Remarks: solubility [5]: Insoluble. At 66.7
CCCCN(C)Cc1c(O)ccc2c(-c3cc4cc(Br)ccc4oc3=O)cc(=O)oc12 [NPD4089]				abnormal cell division [3]: induced abnormal cell division; binding to the TACC3-DsRed fusion protein [4]: bound to the TACC3-DsRed fusion protein
COCC[N+]([O-])(CCOC)Cc1c(OCC=C(C)C)ccc2c(-c3cc4ccccc4oc3=O)cc(=O)oc12 [RT-025]	> 66.7			
O=c1cc(-c2cc3cc(Cl)ccc3oc2=O)c2ccc(O)c(CN3CCCCCC3)c2o1 [NPD2568]				abnormal cell division [3]: induced abnormal cell division; binding to the TACC3-DsRed fusion protein [4]: bound to the TACC3-DsRed fusion protein
O=c1cc(-c2cc3ccccc3oc2=O)c2ccc(O)c(CN3CCOCC3)c2o1 [RT-012]	1.39 (≈ 3.43 µM)	2.05 (≈ 5.06 µM)	remarkable inhibitory effects on cell growth	
COCCN(CCOC)Cc1c(OCC(O)C(C)(C)O)ccc2c(-c3cc4ccccc4oc3=O)cc(=O)oc12 (stereo not shown) [RT-026]	> 66.7			
COCCN(CCOC)Cc1c(OCC(O)CO)ccc2c(-c3cc4ccccc4oc3=O)cc(=O)oc12 (stereo not shown) [RT-024]	> 66.7			
CCN(CC)Cc1c(O)ccc2c(-c3cc4ccccc4oc3=O)cc(=O)oc12 [RT-003]	0.85 (≈ 2.17 µM)	5.08 (≈ 13 µM)	remarkable inhibitory effects on cell growth	
C=CCOc1ccc2c(-c3cc4ccccc4oc3=O)cc(=O)oc2c1CN(CCOC)CCOC [RT-021]	> 66.7			Remarks: solubility [5]: Insoluble
C=CCOc1ccc2c(-c3cc4ccccc4oc3=O)cc(=O)oc2c1C[N+]([O-])(CCOC)CCOC [RT-023]	> 66.7			
CC(=O)OCc1c(OC(C)=O)ccc2c(-c3cc4ccccc4oc3=O)cc(=O)oc12 [RT-002]	> 13.3	8.3 (≈ 19.7 µM)	remarkable inhibitory effects on cell growth	Remarks: start of mitosis [1]: μg/ml, mitosis did not; Remarks: cytotoxic [1]: Cytotoxic. At 66.7
O=c1cc(-c2cc3ccccc3oc2=O)c2ccc(O)c(CN3CCCCC3)c2o1 [RT-009]	2.68 (≈ 6.64 µM)	10.1 (≈ 25.1 µM)	remarkable inhibitory effects on cell growth	
CN(C)CCNCc1c(O)ccc2c(-c3cc4ccccc4oc3=O)cc(=O)oc12 [RT-005]	> 13.3	5.37 (≈ 13.2 µM)	remarkable inhibitory effects on cell growth	Remarks: start of mitosis [1]: μg/ml, mitosis did not; Remarks: cytotoxic [1]: Cytotoxic. At 66.7
O=c1cc(-c2cc3ccccc3oc2=O)c2ccc(O)c(CN3CCCC3)c2o1 [RT-008]	2.67 (≈ 6.86 µM)	9.77 (≈ 25.1 µM)	remarkable inhibitory effects on cell growth	
O=c1cc(-c2cc3ccccc3oc2=O)c2ccc(O)c(CN3CCC(N4CCCCC4)CC3)c2o1 [RT-014]	8.76 (≈ 18 µM)	8.25 (≈ 17 µM)	remarkable inhibitory effects on cell growth	
CC(=O)O[C@H]1C(=O)[C@@]2(C)[C@H]([C@H](OC(=O)c3ccccc3)[C@]3(O)C[C@H](OC(=O)[C@H](O)[C@@H](NC(=O)c4ccccc4)c4ccccc4)C(C)=C1C3(C)C)[C@]1(OC(C)=O)CO[C@@H]1C[C@@H]2O [paclitaxel]				IC50 ([6]; adding SPL-B at 150 μM): 7.7 nM; IC50 ([6]; adding SPL-B at 300 μM): 7.54 nM; IC50 ([6]; in the absence of SPL-B): 8.34 nM
